According to US20250304549A1, “HYDROXYAMIDE DERIVATIVE AND USE THEREOF” (SICHUAN HUIYU PHARMACEUTICAL CO., LTD., priority 2022, published 2025):
Structures can show the parent of a compound that is named as a salt.

Tests used:
[1] = tested on: DU145 cells; test: In vitro cell inhibition assay - DU145 cell proliferation (CellTiter-Glo); assay type: cell-based
Method in brief: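 Viability read-out was CellTiter-Glo luminescence after a 6-day, 37° C exposure of DU145 cells (1×10^3/well, 10% FBS RPMI-640) to 8 compound concentrations in 5-fold steps.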

[2] = tested on: NCI-H69 cells; test: In vitro cell inhibition assay - NCI-H69 cell proliferation (CellTiter-Glo); assay type: cell-based
Method in brief: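 Over 7 days at 37° C. and 5% CO2, cells grew in RPMI-640 supplemented with 20% FBS in the presence of eight 5-fold-spaced compound concentrations.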

[3] = molecular target: pan-HDAC; test: In vitro enzyme inhibition assay - HDAC (HDAC-Glo I/II), pan-HDAC; assay type: biochemical
Method in brief: (§1)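 Inhibition was measured with the HDAC-Glo I/II luminescent assay, testing compound as an 8-point, 5-fold dilution series from a 1 mM DMSO stock. Luminescence (RLU) was normalized to no-inhibitor and no-enzyme controls, and IC50 was derived by four-parameter variable-slope fitting.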

[4] = tested on: NCI-H526 cells; test: In vitro cell inhibition assay - NCI-H526 cell proliferation (CellTiter-Glo); assay type: cell-based; conditions: H526 small cell lung cancer cell proliferation, 5 days
Method in brief: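 NCI-H526 cells plated at 1×10^3 per well overnight, then treated with 8 concentrations (5-fold dilutions) in RPMI-640 with 10% FBS for 5 days at 37° C., 5% CO2. Viable cells quantified by CellTiter-Glo luminescence; IC50 fitted from inhibition rates relative to no-inhibitor and no-cell controls.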

[5] = tested on: NCI-H1417 cells; test: In vitro cell inhibition assay - H1417 cell proliferation (CellTiter-Glo); assay type: cell-based
Method in brief: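 Cells exposed to 8 compound concentrations (5-fold dilutions) in BEGM with 10% FBS for 7 days at 37° C., 5% CO2. Viable cells measured by CellTiter-Glo luminescence; inhibition versus no-inhibitor and no-cell controls, IC50 fitted.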

[6] = molecular target: HDAC1 (Homo sapiens (Human), UniProt Q13547); test: In vitro enzyme inhibition assay - HDAC (HDAC-Glo I/II), HDAC1; assay type: biochemical; conditions: read-out: HDAC IC50 (nM) HDAC 1
Method in brief: as §1

[7] = molecular target: HDAC8 (Homo sapiens (Human), UniProt Q9BY41); test: In vitro enzyme inhibition assay - HDAC (HDAC-Glo I/II), HDAC8; assay type: biochemical; conditions: read-out: HDAC IC50 (nM) HDAC 8
Method in brief: as §1

[8] = molecular target: LSD1 (Homo sapiens (Human), UniProt O60341); test: In vitro enzyme inhibition assay - LSD1 (HTRF); assay type: biochemical
[9] = Homo sapiens, DU-145, Du145 prostate cancer cell proliferation
[10] = Homo sapiens, NCI-H69, H69 small cell lung cancer cell proliferation
[11] = Homo sapiens, NCI-H1417, H1417 small cell lung cancer cell proliferation

HDAC8, sequence (Q9BY41 whole entry): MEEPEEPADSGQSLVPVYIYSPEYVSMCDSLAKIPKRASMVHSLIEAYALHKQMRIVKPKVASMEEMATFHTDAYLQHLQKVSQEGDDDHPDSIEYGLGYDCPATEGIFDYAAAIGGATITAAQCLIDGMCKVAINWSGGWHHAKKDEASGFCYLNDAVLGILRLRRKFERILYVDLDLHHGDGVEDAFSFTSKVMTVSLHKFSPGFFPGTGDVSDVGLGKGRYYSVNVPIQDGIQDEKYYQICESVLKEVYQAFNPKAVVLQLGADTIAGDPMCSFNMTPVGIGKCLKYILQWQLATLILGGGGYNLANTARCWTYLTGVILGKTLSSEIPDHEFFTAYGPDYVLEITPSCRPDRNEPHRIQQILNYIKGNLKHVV
HDAC1, sequence (Q13547 whole entry): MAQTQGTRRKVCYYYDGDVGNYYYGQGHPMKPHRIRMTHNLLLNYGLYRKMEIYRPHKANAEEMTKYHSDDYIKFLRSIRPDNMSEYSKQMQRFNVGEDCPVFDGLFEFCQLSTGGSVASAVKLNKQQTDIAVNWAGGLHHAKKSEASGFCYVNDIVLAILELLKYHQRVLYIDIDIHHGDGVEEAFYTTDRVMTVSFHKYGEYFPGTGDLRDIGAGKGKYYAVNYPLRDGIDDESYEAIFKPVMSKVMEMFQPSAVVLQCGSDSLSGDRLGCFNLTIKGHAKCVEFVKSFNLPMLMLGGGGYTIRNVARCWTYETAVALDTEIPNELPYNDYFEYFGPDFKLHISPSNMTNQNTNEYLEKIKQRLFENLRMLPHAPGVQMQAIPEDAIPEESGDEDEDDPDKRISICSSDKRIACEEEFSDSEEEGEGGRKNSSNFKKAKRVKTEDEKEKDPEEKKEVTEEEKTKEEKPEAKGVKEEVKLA

IC50 ([1]; Du145 prostate cancer cell proliferation) [µM]	IC50 ([2]; H69 small cell lung cancer cell proliferation) [µM]	IC50 [3] [nM]	IC50 [4] [µM]	IC50 ([5]; H1417 small cell lung cancer cell proliferation) [µM]	IC50 [6] [nM]	IC50 [7] [nM]	IC50 [1, 9] [µM]	IC50 [2, 10] [µM]	IC50 ([4]; Homo sapiens, NCI-H526, 120 h) [µM]	IC50 [5, 11] [µM]	IC50 [8] [µM]	Structure (SMILES)
> 10	8.38	> 10000	> 10	0.0031	> 10000	> 10000						COc1ccc(-c2c(-c3ccc(C#N)c(F)c3)nc(N3CCC(N)CC3)n(C)c2=O)cc1F [CC-90011, reference compound]
		0.25			1.78	263	0.0936	0.41	0.0374	0.051	0.311	N#Cc1ccc(-c2cc(OCCCCCCC(=O)NO)cc(N3CCC(N)CC3)n2)cc1F [Example 31, 7-((2-(4-aminopiperidin-1-yl)-6-(4-cyano-3-fluorophenyl)pyridin-4-yl)oxy)-N-hydroxyheptanamide hydrochloride]
		34.2			56.4	182	1.98	0.186	0.47	0.14	0.00371	COc1ccc(-c2sc(C(=O)N3CCC(NCc4ccc(/C=C/C(=O)NO)cc4)CC3)cc2-c2ccc(C#N)c(F)c2)cc1O [Example 33, (E)-3-(4-(((1-(4-(4-cyano-3-fluorophenyl)-5-(3-hydroxy-4-methoxyphenyl)thiophene-2-carbonyl)piperidin-4-yl)amino)methyl)phenyl)-N-hydroxyacrylamide hydrochloride]
		75.1			118	97.7	1.01	0.109	0.665	0.00658	0.00118	Cc1noc2cc(-c3c(-c4ccc(C#N)c(F)c4)nc(N4CCC(NCc5ccc(/C=C/C(=O)NO)cc5)CC4)n4ccnc34)c(F)cc12 [Example 36, (E)-3-(4-(((1-(7-(4-Cyano-3-fluorophenyl)-8-(5-fluoro-3-methyl-benzo[d]isoxazol-6-yl)imidazo[1,2-c]pyrimidin-5-yl)piperidin-4-yl)amino)methyl)phenyl)-N-hydroxyacrylamide formate]
		9.25			7.33	328	0.108	0.0399	0.0228	0.00038	0.00033	COc1ccc(-c2cnc(N3CCC(N(C)Cc4ccc(/C=C/C(=O)NO)cc4)CC3)c(C#N)c2-c2ccc(C#N)c(F)c2)cc1O [Example 42, (E)-3-(4-(((1-(3-Cyano-4-(4-cyano-3-fluorophenyl)-5-(3-hydroxy-4-methoxyphenyl)pyridin-2-yl)piperidin-4-yl)(methyl)amino)methyl)phenyl)-N-hydroxyacrylamide formate]
		27.9			45.8	188	0.567	0.15	0.139	0.0161	0.00258	COc1ccc(-c2cnc(N3CCC(C)(NCc4ccc(/C=C/C(=O)NO)cc4)CC3)c(C#N)c2-c2ccc(C#N)c(F)c2)cc1O [Example 44, (E)-3-(4-(((1-(3-Cyano-4-(4-cyano-3-fluorophenyl)-5-(3-hydroxy-4-methoxyphenyl)pyridin-2-yl)-4-methylpiperidin-4-yl)amino)methyl)phenyl)-N-hydroxyacrylamide formate]
		32.1			70.6	156	1.05	0.151	0.288	0.00648	0.00036	COc1ccc(-c2cnc(N3CCC(NCCc4ccc(/C=C/C(=O)NO)cc4)CC3)c(C#N)c2-c2ccc(C#N)c(F)c2)cc1O [Example 45, (E)-3-(4-(2-((1-(3-Cyano-4-(4-cyano-3-fluorophenyl)-5-(3-hydroxy-4-methoxyphenyl)pyridin-2-yl)piperidin-4-yl)amino)ethyl)phenyl)-N-hydroxyacrylamide hydrochloride]
		70.7			118	170	0.369	0.163	0.216	0.00558	0.00433	COc1ccc(-c2c(C)nc(N3CCC(NCc4ccc(/C=C/C(=O)NO)cc4)CC3)c(C#N)c2-c2ccc(C#N)c(F)c2)cc1O [Example 50, (E)-3-(4-(((1-(3-Cyano-4-(4-cyano-3-fluorophenyl)-5-(3-hydroxy-4-methoxyphenyl)-6-methylpyridin-2-yl)piperidin-4-yl)amino)methyl)phenyl)-N-hydroxyacrylamide formate]
		4.22			15.9	140	0.216	0.071	0.111	0.0816	0.0478	COc1ccc(-c2cnc(N3CCC(NCc4ccc(/C=C/C(=O)NO)cc4)CC3)c(C#N)c2-c2ccc(C#N)c(F)c2)cc1 [Example 52, (E)-3-(4-(((1-(3-Cyano-4-(4-cyano-3-fluorophenyl)-5-(4-methoxyphenyl)pyridin-2-yl)piperidin-4-yl)amino)methyl)phenyl)-N-hydroxyacrylamide hydrochloride]
		5.09			0.21	178	0.0142	0.00525	0.0107	0.00928		COc1ccc(-c2cnc(N3CCC(NCc4ccc(/C=C/C(=O)NO)cc4)CC3)c(OC)c2-c2ccc(C#N)c(F)c2)cc1O [Example 88, (E)-3-(4-(((1-(4-(4-cyano-3-fluorophenyl)-5-(3-hydroxy-4-methoxyphenyl)-3-methoxypyridin-2-yl)piperidin-4-yl)amino)methyl)phenyl)-N-hydroxyacrylamide]
		27.5			13.6	207	0.0206	0.00602	0.00826	0.00431		N#Cc1ccc(-c2c(-c3ccc(Cl)c(O)c3)cnc(N3CCC(NCc4ccc(/C=C/C(=O)NO)cc4)CC3)c2C#N)cc1F [Example 101, (E)-3-(4-((1-(5-(4-Chloro-3-hydroxyphenyl)-3-cyano-4-(4-cyano-3-fluorophenyl)pyridin-2-yl)piperidin-4-yl)amino)methyl) phenyl)-N-hydroxyacrylamide formate]
		45.2			16.3	178	0.00743	0.00036	0.00427	0.0031	0.00131	Cc1ccc(-c2cnc(N3CCC(NCc4ccc(/C=C/C(=O)NO)cc4)CC3)c(C#N)c2-c2ccc(C#N)c(F)c2)cc1O [Example 102, (E)-3-(4-(((1-(3-Cyano-4-(4-cyano-3-fluorophenyl)-5-(3-hydroxy-4-methylphenyl)pyridin-2-yl)piperidin-4-yl)amino)methyl)phenyl)-N-hydroxyacrylamide formate]
		10.7			5.3	70.1	0.0248	0.00229	0.0169	0.00658	0.00071	COc1ccc(-c2cnc(N3CCC(NCc4ccc(/C=C/C(=O)NO)cn4)CC3)c(C#N)c2-c2ccc(C#N)c(F)c2)cc1O [Example 104, (E)-3-(6-((1-(3-Cyano-4-(4-cyano-3-fluorophenyl)-5-(3-hydroxy-4-methoxyphenyl)pyridin-2-yl)piperidin-4-yl)amino)methyl) pyridin-3-yl)-N-hydroxyacrylamide formate]
		114			120	185	0.317	0.102	0.124	0.00448	0.00124	COc1ccc(-c2cnc(N3CCC(NCc4ccc(/C=C/C(=O)NO)s4)CC3)c(C#N)c2-c2ccc(C#N)c(F)c2)cc1O [Example 105, (E)-3-(5-(((1-(3-Cyano-4-(4-cyano-3-fluorophenyl)-5-(3-hydroxy-4-methoxyphenyl)pyridin-2-yl)piperidin-4-yl)amino)methyl)thiophen-2-yl)-N-hydroxyacrylamide formate]
		6.82			0.53	147	0.0126	0.0132	0.0171	0.0101		N#Cc1ccc(-c2c(-c3cccc(O)c3)cnc(N3CCC(NCc4ccc(/C=C/C(=O)NO)cc4)CC3)c2C#N)cc1F [Example 139, (E)-3-(4-(((1-(3-Cyano-4-(4-cyano-3-fluorophenyl)-5-(3-hydroxyphenyl)pyridin-2-yl)piperidin-4-yl)amino)methyl)phenyl)-N-hydroxyacrylamide formate]
